Experimental findings from patent US10154992B2, “Compounds and methods for treating HIV infection” (THE REGENTS OF THE UNIVERSITY OF CALIFORNIA, priority 2016, dated 2018) are described below.

The test system of experiment [1] is clinical isolates of HIV-1. Kind of experiment: HIV-1 replication assay in PBMCs, p24 ELISA. It is filed as cell-based. As for the experimental part:
HIV-1 replication assay in PBMCs. Virus isolates were obtained from the NIH AIDS Reagent Program. Human PBMCs, seronegative for HIV and hepatitis B virus (Astarte Biologics, LLC) were stimulated in R-3 medium (RPMI 1640 medium with 25 mM HEPES and L-glutamine, 20% heat-inactivated fetal bovine serum, 1% penicillin/streptomycin, 201U/mL IL-2) with 5 µg/mL phytohemagglutinin (PHA-P) for 48 to 72 h. Stimulated PBMCs were resuspended and diluted in fresh R-3 medium and added to 96-well plates at 5×10^4 cells/well. The 50% tissue culture infective dose (TCID50) of each virus stock was measured by end-point dilution assay described by Reed and Muench (Reed, L. J., and Muench, H. (1938) American Journal of Hygiene 27, 493-497). Spinoculation (1,200×g, 2 hrs) was applied to improve the efficiency of infection.
Cells were infected with 40 TCID50s of virus stock under spinoculation in the presence of different concentrations of test compounds (biological quintuplicate wells/concentration) and incubated at 37° C., 5% CO2 for 7 days. On day 4, half of the supernatant was removed and replaced with fresh R-3 medium containing the appropriate concentration of test compounds. On day 7, cell-free supernantant samples were collected for analysis of p24 antigen expression measured by ELISA described above. Antiviral activity was assessed by the inhibition of p24 expression (Reed, L. J., and Muench, H. (1938) American Journal of Hygiene 27, 493-497.
On the technique in general: In an ELISA, binding on a coated surface is turned into a signal by an enzyme label.

Experiment [2] concerns HIV RRE (Rev-dependent) reporter. Description: Rev reporter assay in 293T cells, p24 ELISA. It is filed as cell-based. Conditions: Human immunodeficiency virus 1, HEK-293T, Table 2. Here is the method:
Rev reporter assay. In the Rev reporter assay, 293T cells were transfected with an HIV RRE (Rev-dependent) reporter plus a pSV2 Rev expression plasmid (Hope, T. J., et al. (1990) Proc. Natl. Acad. Sci. USA 87, 7787-7791). Compounds were incubated with the cells for 48 hours and reporter activity was assessed by p24 ELISA. Leptomycin B, an inhibitor of the Crm1 pathway that inhibits Rev-dependent export, was included as a control. The cytotoxicity of each compound was determined in parallel via MTT-based cell viability assays.
In general terms: In a reporter assay the amount or activity of a reporter protein is the signal.

Some results are limits rather than exact numbers.

As usually defined, the IC50 is the concentration at which inhibition is half-maximal. What is called EC50 is the concentration at which the effect is half-maximal. Low values mean higher potency in that assay, high ones lower potency in that assay. Take `NC(=O)c1cc2c(-c3ccc4c(c3)CCO4)cncc2s1` [Compound 4e, 4-(2,3-dihydro-1-benzofuran-5-yl)thieno[2,3-c]pyridine-2-carboxamide]: the IC50 is under 100 nM in experiment [1] (Human immunodeficiency virus 1, BAL, CCR5, PBMC, viral isolate Ba-L, coreceptor CCR5); under 100 nM in experiment [1] (Human immunodeficiency virus 1, CCR5, PBMC, viral isolate 92HT593, coreceptor CXCR4, CCR5); under 100 nM in experiment [1] (Human immunodeficiency virus 1, CCR5, PBMC, viral isolate 92TH014, coreceptor CCR5); under 100 nM in experiment [1] (Human immunodeficiency virus 1, CCR5, PBMC, viral isolate 93BR021, coreceptor CCR5); under 100 nM in experiment [1] (Human immunodeficiency virus 1, CCR5, PBMC, viral isolate 93BR028, coreceptor CCR5); under 100 nM in experiment [1] (Human immunodeficiency virus 1, PBMC, PBMC, viral isolate 92HT599, coreceptor CXCR4). Further, the IC50 was under 100 nM in experiment [1] (Human immunodeficiency virus 1, PBMC, PBMC, viral isolate 92UG005, coreceptor CXCR4) and 100 to 500 nM in experiment [1] (Human immunodeficiency virus 1, PBMC, PBMC, viral isolate LAI, coreceptor CXCR4). This molecule also displayed an EC50 in experiment [2] of 100 to 500 nM.
